One may read the pKi as the Ki on a negative log10 scale, so that one unit is a factor of ten.

Structures are written as SMILES. pKi: −log10 of the molar value.

The target of data set [1] is T1, human cathepsin S (Homo sapiens, UniProt P25774).
T1 construct: made in house; host or cells: baculovirus expression system
In words: Cathepsin S Ki determination. As to conditions: baculovirus-expressed enzyme, boc-Val-Leu-Lys-AMC substrate, pH 6.5; read-out: Ki Cat. S. It is filed as biochemical. The protocol:
The assay uses baculovirus-expressed human cathepsin S and the boc-Val-Leu-Lys-AMC fluorescent substrate available from Bachem in a 384 well plate format, in which 7 test compounds can be tested in parallel with a positive control comprising a known cathepsin S inhibitor comparator.
280 μL/well of 12.5% DMSO are added to rows B-H of two columns of a 96 deep well polypropylene plate. 70 μL/well of substrate is added to row A. 2×250 μL/well of assay buffer (100 mM Na phosphate, 100 mM NaCl, pH 6.5) is added to row A, mixed, and double diluted down the plate to row H.
100 μL/well of assay buffer is added to columns 2-5 and 7-12 of 4 rows of a 96 well V bottom polypropylene plate. 200 μL/well of assay buffer is added to columns 1 and 6.
2 μl of each 10 mM test compound is added to a separate well on row A, columns 1-10. Add 90 μl assay buffer containing 1 mM DTT and 2 nM cathepsin S to each well of rows B-H and 180 μl to row A. Mix row A using a multichannel pipette and double dilute to row G. Mix row H and read in the fluorescent spectrophotometer. The readings are Prism data fitted to the competitive inhibition equation, setting S=100 μM and KM=100 μM to obtain an estimate of the up to a maximum of 100 μM.
The second test compound is added to column 6 of the top row, the third to column 1 of the second row etc. Add 1 μL of comparator to column 6 of the bottom row. Mix column 1 and double dilute to column 5. Mix column 6 and double dilute to column 10.
Using an 8-channel multistepping pipette set to 5×10 μL, distribute 10 μL/well of substrate to the 384 well assay plate. Distribute the first column of the substrate dilution plate to all columns of the assay plate starting at row A. The tip spacing of the multichannel pipette will correctly skip alternate rows. Distribute the second column to all columns starting at row B.
Using a 12-channel multistepping pipette set to 4×10 μL, distribute 10 μL/well of inhibitor to the 384 well assay plate. Distribute the first row of the inhibitor dilution plate to alternate rows of the assay plate starting at A1. The tip spacing of the multichannel pipette will correctly skip alternate columns. Similarly, distribute the second, third and fourth rows to alternate rows and columns starting at A2, B1 and B2 respectively.
Mix 20 mL assay buffer and 20 μL 1M DTT. Add sufficient cathepsin S to give 2 nM final concentration.
Using the a distributor such as a Multidrop 384, add 30 μL/well to all wells of the assay plate and read in fluorescent spectrophotometer such as an Ascent.
Fluorescent readings, (excitation and emission wavelengths 390 nm and 460 nm respectively, set using bandpass filters) reflecting the extent of enzyme cleavage of the fluorescent substrate, […] the inhibitor, are linear rate fitted for each well.
Fitted rates for all wells for each inhibitor are fitted to the competitive inhibition equation using SigmaPlot 2000 to determine V, Km and Ki values.
(§1) Potential inhibitors are screened using the above assay with variable concentrations of test compound. Reactions were initiated by addition of enzyme to buffered solutions of substrate and inhibitor. Ki values were calculated according to equation 1.
(§2) [formula] where v0 is the velocity of the reaction, V is the maximal velocity, S is the concentration of substrate with Michaelis constant of KM, and I is the concentration of inhibitor.

Data set [2] concerns the target human cathepsin L (Homo sapiens, UniProt P07711). In words: Cathepsin L Ki. It is filed as biochemical. As to conditions: H-D-Val-Leu-Lys-AMC substrate, pH5.5; read-out: Ki Cat. L. The protocol:
The procedure above with the following amendments is used for the determination of Ki for cathepsin L.
The enzyme is commercially available human cathepsin L (for example Calbiochem). The substrate is H-D-Val-Leu-Lys-AMC available from Bahcem. The assay buffer is 100 mM sodium acetate 1 mM EDTA, pH5.5) The DMSO stock (10 mM in 100% DMSO) is diluted to 10% in assay buffer. Enzyme is prepared at 5 nM concentration in assay buffer plus 1 mM dithiothreitol just before use. 2 μL of 10 mM inhibitor made up in 100% DMSO is dispensed into row A. 10 μL of 50 μM substrate (=1/200 dilution of 10 mM stock in DMSO, diluted in assay buffer).
as §1, §2

For data set [3], the target named is T2, human recombinant cathepsin K (Homo sapiens, UniProt P43235).
T2 construct: made in house; host or cells: not fixed: E coli, Pichia or Baculovirus systems named as options
T2 sequence (P43235 115-329): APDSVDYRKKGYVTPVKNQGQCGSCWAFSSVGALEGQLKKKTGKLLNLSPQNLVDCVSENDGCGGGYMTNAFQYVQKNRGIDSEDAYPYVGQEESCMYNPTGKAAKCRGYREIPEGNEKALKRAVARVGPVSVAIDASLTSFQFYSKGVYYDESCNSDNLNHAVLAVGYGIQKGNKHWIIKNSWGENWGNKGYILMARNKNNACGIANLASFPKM
In words: Determination of cathepsin K proteolytic catalytic activity (Ki). Type of data set: biochemical. The conditions noted are these: fluorogenic substrate H-D-Ala-Leu-Lys-AMC; read-out: Ki Cat. K. As to the method: Convenient assays for cathepsin K are carried out using human recombinant enzyme, such as that described in PDB. • ID BC016058 standard; mRNA; HUM; 1699 BP. • DE Homo sapiens cathepsin K (pycnodysostosis), mRNA (cDNA clone MGC:23107 • RX MEDLINE;. RX PUBMED; 12477932. • DR RZPD; IRALp962G1234. • DR SWISS-PROT; P43235;
The recombinant cathepsin K can be expressed in a variety of commercially available expression systems including E coli, Pichia and Baculovirus systems. The purified enzyme is activated by removal of the prosequence by conventional methods.
Standard assay conditions for the determination of kinetic constants used a fluorogenic peptide substrate, typically H-D-Ala-Leu-Lys-AMC, and were determined in either 100 mM Mes/Tris, pH 7.0 containing 1 mM EDTA and 10 mM 2-mercaptoethanol or 100 mMNa phosphate, imM EDTA, 0.1% PEG4000 pH 6.5 or 100 mM Na acetate, pH 5.5 containing 5 mM EDTA and 20 mM cysteine, in each case optionally with […] as stabiliser. The enzyme concentration used was 5 nM. The stock substrate solution was prepared at 10 mM in DMSO. Screens were carried out at a fixed substrate concentration of 60 μM and detailed kinetic studies with doubling dilutions of substrate from 250 μM. The total DMSO concentration in the assay was kept below 3%. All assays were conducted at ambient temperature. Product fluorescence (excitation at 390 nm, emission at 460 nm) was monitored with a Labsystems Fluoroskan Ascent fluorescent plate reader. Product progress curves were generated over 15 minutes following generation of AMC product.
as §1, §2

The conditions of data set [4]: reference markers for permeability categories; cited from earlier work.

T1 sequence (P25774 115-331): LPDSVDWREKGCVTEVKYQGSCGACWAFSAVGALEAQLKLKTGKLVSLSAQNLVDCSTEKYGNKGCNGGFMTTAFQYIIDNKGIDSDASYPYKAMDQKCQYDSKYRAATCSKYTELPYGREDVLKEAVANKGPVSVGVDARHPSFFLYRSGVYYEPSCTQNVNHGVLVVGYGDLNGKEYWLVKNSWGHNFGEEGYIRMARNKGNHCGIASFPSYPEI
human cathepsin L, sequence (P07711 114-333): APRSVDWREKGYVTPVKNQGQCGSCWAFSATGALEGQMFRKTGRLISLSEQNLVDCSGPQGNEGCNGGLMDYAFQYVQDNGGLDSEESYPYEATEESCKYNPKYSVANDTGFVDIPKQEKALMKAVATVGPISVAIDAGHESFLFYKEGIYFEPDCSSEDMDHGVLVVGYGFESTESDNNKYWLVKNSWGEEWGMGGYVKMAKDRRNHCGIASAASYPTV

As to `CC(C)OC(=O)N[C@@H](CC1(F)CCCC1)C(=O)NC1(C(=O)C(N)=O)CCC1` [Example C14], the pKi is 8.68 in data set [1], 5.55 in data set [2] and 6.19 in data set [3].

Turning to `N[C@@H](Cc1ccccc1)C(=O)O` [L-Phenylalanine], the “absorption in man (%)” value in data set [4] is given as 100%.

Regarding `OC[C@@H](O)[C@@H](O)[C@H](O)[C@H](O)CO` [Mannitol], the “absorption in man (%)” value in data set [4] is 16%.

Consider `CN(Cc1cnc2nc(N)nc(N)c2n1)c1ccc(C(=O)N[C@@H](CCC(=O)O)C(=O)O)cc1` [Methotrexate], for which the “absorption in man (%)” value in data set [4] is reported as 20%.

(Values after US8859505B2, “Cysteine protease inhibitors” (Medivir UK Ltd, priority 2010, dated 2014).)
